The text below walks through data of patent publication US12403137B2, “Compounds and methods of use” (Tango Therapeutics, Inc., priority 2019, dated 2025).

The test system of test [1] is HAP1 MTAP-deleted cell line. In words: SDMA in-cell western assay, HAP1 MTAP-deleted. Particulars: for IC50: Homo sapiens, HAP1 MTAP-deleted (MTAP-null) cell line; for MTAP Intact/Deleted Ratio: IC50 ratio HAP1 MTAP-intact / HAP1 MTAP-deleted, >=3 fold considered MTAP-selective. Format: cell-based. The gist of the method:
(§1)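 Symmetric dimethylarginine (SDMA) levels were measured by in-cell western in an isogenic HAP1 pair. One line expresses endogenous MTAP and the other is MTAP-null, with an IC50 derived in each.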

In test [2] the test system is HAP1 MTAP-intact cell line. In words: SDMA in-cell western assay, HAP1 MTAP-intact. It counts as cell-based. Particulars: Homo sapiens. The method, boiled down:
as §1

Test [3] addresses T1, PRMT5 (Homo sapiens, UniProt O14744).
T1 construct: purchased Viva (custom protein)
In words: PRMT5 inhibition assay with MTA as cofactor. Particulars: for IC50: against PRMT5 with MTA as cofactor; for SAM/MTA Ratio: ratio of Ki in the presence of SAM to Ki in the presence of MTA, Ki=IC50/1.5 (SAM), Ki=IC50/13.5 (MTA). It counts as biochemical. The source says: (§2) The Ki values can be calculated from the IC50 values as described in the Examples section. As detailed in the Examples section, for the assay performed in the presence of SAM, IC50=Ki×1.5 (Ki=IC50/1.5). For the assay performed in the presence of MTA, IC50=Ki×13.5 (Ki=IC50/13.5). Column 6 indicates the ratio between the Ki of compounds in the presence of SAM and the Ki of compounds in the presence of MTA

In test [4] the target is T1, PRMT5. As to the kind of experiment: PRMT5 inhibition assay with no cofactor. It counts as biochemical. Particulars: against PRMT5 with no cofactor; read-out: No Co-factor IC50.
The target in test [5] is T1, PRMT5. In words: PRMT5 inhibition assay with SAM as cofactor. Format: biochemical. Particulars: against PRMT5 in the presence of SAM as cofactor.
Text: as §2

T1 sequence (O14744 whole entry): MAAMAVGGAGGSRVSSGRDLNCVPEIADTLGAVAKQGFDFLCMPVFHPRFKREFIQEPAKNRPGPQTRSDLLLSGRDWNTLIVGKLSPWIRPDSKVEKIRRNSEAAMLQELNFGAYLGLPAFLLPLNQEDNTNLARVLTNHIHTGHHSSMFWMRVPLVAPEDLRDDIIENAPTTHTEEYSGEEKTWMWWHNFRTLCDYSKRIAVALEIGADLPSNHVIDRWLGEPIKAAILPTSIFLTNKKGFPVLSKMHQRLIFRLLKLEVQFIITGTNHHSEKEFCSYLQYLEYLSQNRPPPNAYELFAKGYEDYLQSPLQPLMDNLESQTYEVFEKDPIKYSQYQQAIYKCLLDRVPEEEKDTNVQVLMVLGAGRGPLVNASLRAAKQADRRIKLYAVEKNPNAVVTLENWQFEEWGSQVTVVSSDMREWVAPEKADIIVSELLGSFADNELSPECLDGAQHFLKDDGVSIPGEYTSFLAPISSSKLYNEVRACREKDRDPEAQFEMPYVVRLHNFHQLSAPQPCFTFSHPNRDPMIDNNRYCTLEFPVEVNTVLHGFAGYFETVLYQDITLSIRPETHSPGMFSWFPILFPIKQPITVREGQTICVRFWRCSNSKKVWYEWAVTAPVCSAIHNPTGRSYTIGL
T1 sequence (Q9BQA1 whole entry partner): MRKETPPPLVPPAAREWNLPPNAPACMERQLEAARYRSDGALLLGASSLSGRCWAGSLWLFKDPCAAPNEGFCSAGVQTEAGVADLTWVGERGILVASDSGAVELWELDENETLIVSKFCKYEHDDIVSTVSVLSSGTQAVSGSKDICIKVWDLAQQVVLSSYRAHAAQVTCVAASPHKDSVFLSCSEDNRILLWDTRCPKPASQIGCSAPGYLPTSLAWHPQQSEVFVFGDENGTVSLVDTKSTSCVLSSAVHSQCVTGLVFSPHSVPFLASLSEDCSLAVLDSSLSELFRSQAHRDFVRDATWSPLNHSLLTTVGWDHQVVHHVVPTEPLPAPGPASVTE

Regarding `COc1cnc(NC2CCC2)cc1C(=O)NC[C@@H](O)[C@@H]1Cc2ccc(OCc3ocnc3C)cc2CN1` [Compound 36, 2-(cyclobutylamino)-N—((R)-2-hydroxy-2-((S)-7-((4-methyloxazol-5-yl)methoxy)-1,2,3,4-tetrahydroisoquinolin-3-yl)ethyl)-5-methoxyisonicotinamide], the IC50 (commonly the concentration at which inhibition is half-maximal) was below 1000 nM in test [1]; 1 to 10 µM in test [2]; below 50 nM against PRMT5 [3]; 500 to 5000 nM at PRMT5 [4]; 50 to 500 nM on PRMT5 [5]. The “MTAP Intact/Deleted Ratio” value in test [1] was “B* (an IC50 ratio greater than or equal to 3 fold but lower than 10 fold between the IC50 in the HAP1 MTAP-intact cell line and the HAP1 MTAP-deleted cell line)”. In addition, the “SAM/MTA Ratio” value at PRMT5 [3] is “A (a Ki ratio greater than or equal to 10 fold between the Ki in the presence of SAM and the Ki in the presence of MTA)”.

For `CCC(=O)N1CCN(c2cc(C(=O)NC[C@@H](O)[C@@H]3Cc4ccc(OCc5ocnc5C)cc4CN3)cc(NC3CCC3)n2)CC1` [Compound 39, 2-(cyclobutylamino)-N—((R)-2-hydroxy-2-((S)-7-((4-methyloxazol-5-yl)methoxy)-1,2,3,4-tetrahydroisoquinolin-3-yl)ethyl)-6-(4-propionylpiperazin-1-yl)isonicotinamide], the IC50 in test [1] is below 1000 nM; in test [2], 1 to 10 µM; against PRMT5 [3], below 50 nM; at PRMT5 [4], 50 to 500 nM; at PRMT5 [5], 50 to 500 nM. Besides, the “MTAP Intact/Deleted Ratio” value in test [1] was “A* (an IC50 ratio greater than or equal to 10 fold between the IC50 in the HAP1 MTAP-intact cell line and the HAP1 MTAP-deleted cell line)”. In addition, the “SAM/MTA Ratio” value at PRMT5 [3] is “A (a Ki ratio greater than or equal to 10 fold between the Ki in the presence of SAM and the Ki in the presence of MTA)”.

Turning to `CC(=O)N1CCC(Nc2cc(C(=O)NC[C@@H](O)[C@@H]3Cc4ccc(OCc5ocnc5C)cc4CN3)cc(N3CCCCC3)n2)CC1` [Compound 40, 2-[(1-acetyl-4-piperidyl)amino]-N-[(2R)-2-hydroxy-2-[(3S)-7-[(4-methyloxazol-5-yl)methoxy]-1,2,3,4-tetrahydroisoquinolin-3-yl]ethyl]-6-(1-piperidyl)pyridine-4-carboxamide], the IC50 in test [1] was below 1000 nM; in test [2], 1 to 10 µM; at PRMT5 [3], below 50 nM; on PRMT5 [4], 50 to 500 nM; at PRMT5 [5], 50 to 500 nM. In test [1], the “MTAP Intact/Deleted Ratio” value is “A* (an IC50 ratio greater than or equal to 10 fold between the IC50 in the HAP1 MTAP-intact cell line and the HAP1 MTAP-deleted cell line)”. On PRMT5 [3], the “SAM/MTA Ratio” value was “A (a Ki ratio greater than or equal to 10 fold between the Ki in the presence of SAM and the Ki in the presence of MTA)”.

As to `CC(=O)N1CCC(Nc2cc(C(=O)NC[C@@H](O)[C@@H]3Cc4ccc(OCc5ocnc5C)cc4CN3)ncn2)CC1` [Compound 41, 6-[(1-acetyl-4-piperidyl)amino]-N-[(2R)-2-hydroxy-2-[(3S)-7-[(4-methyloxazol-5-yl)methoxy]-1,2,3,4-tetrahydroisoquinolin-3-yl]ethyl]pyrimidine-4-carboxamide], the IC50 in test [1] is 1000 to 10000 nM; in test [2], at least 10 µM; against PRMT5 [3], below 50 nM; at PRMT5 [4] it was 500 to 5000 nM; on PRMT5 [5], 50 to 500 nM. Besides, the “MTAP Intact/Deleted Ratio” value in test [1] was “B* (an IC50 ratio greater than or equal to 3 fold but lower than 10 fold between the IC50 in the HAP1 MTAP-intact cell line and the HAP1 MTAP-deleted cell line)”. Besides, on PRMT5 [3], the “SAM/MTA Ratio” value was “A (a Ki ratio greater than or equal to 10 fold between the Ki in the presence of SAM and the Ki in the presence of MTA)”.

For the molecule `Cc1ncoc1COc1ccc2c(c1)CN[C@H]([C@H](O)CNC(=O)c1cc(NC3CC4(CCC4)C3)nc(N3CCN(C(=O)C4CC4)CC3)c1)C2` [Compound 42, 2-[4-(cyclopropanecarbonyl)piperazin-1-yl]-N-[(2R)-2-hydroxy-2-[(3S)-7-[(4-methyloxazol-5-yl)methoxy]-1,2,3,4-tetrahydroisoquinolin-3-yl]ethyl]-6-(spiro[3.3]heptan-2-ylamino)pyridine-4-carboxamide], the IC50 was below 1000 nM in test [1]; below 1 µM in test [2]; 50 to 500 nM against PRMT5 [3]; 50 to 500 nM on PRMT5 [4]; 50 to 500 nM at PRMT5 [5]. For the same molecule, the “MTAP Intact/Deleted Ratio” value in test [1] was “A* (an IC50 ratio greater than or equal to 10 fold between the IC50 in the HAP1 MTAP-intact cell line and the HAP1 MTAP-deleted cell line)”. Moreover, the “SAM/MTA Ratio” value on PRMT5 [3] was “A (a Ki ratio greater than or equal to 10 fold between the Ki in the presence of SAM and the Ki in the presence of MTA)”.

Consider `Cc1ncoc1COc1ccc2c(c1)CN[C@H]([C@H](O)CNC(=O)c1cc(NC3CC4(CCC4)C3)ncn1)C2` [Compound 43, N-[(2R)-2-hydroxy-2-[(3S)-7-[(4-methyloxazol-5-yl)methoxy]-1,2,3,4-tetrahydroisoquinolin-3-yl]ethyl]-6-(spiro[3.3]heptan-2-ylamino)pyrimidine-4-carboxamide], for which the IC50 in test [1] is below 1000 nM; in test [2] it was 1 to 10 µM; at PRMT5 [3] it was below 50 nM; at PRMT5 [4], 50 to 500 nM; at PRMT5 [5], 50 to 500 nM. Also, the “MTAP Intact/Deleted Ratio” value in test [1] was “A* (an IC50 ratio greater than or equal to 10 fold between the IC50 in the HAP1 MTAP-intact cell line and the HAP1 MTAP-deleted cell line)”. Besides, the “SAM/MTA Ratio” value on PRMT5 [3] is “A (a Ki ratio greater than or equal to 10 fold between the Ki in the presence of SAM and the Ki in the presence of MTA)”.

As to `CC(=O)N1CCC(Nc2cc(C(=O)NC[C@@H](O)[C@@H]3Cc4ccc(OCc5ocnc5C)cc4CN3)ccn2)CC1` [Compound 44, 2-[(1-acetyl-4-piperidyl)amino]-N-[(2R)-2-hydroxy-2-[(3S)-7-[(4-methyloxazol-5-yl)methoxy]-1,2,3,4-tetrahydroisoquinolin-3-yl]ethyl]pyridine-4-carboxamide], the half-maximal inhibitory concentration (IC50) in test [1] was 1000 to 10000 nM; in test [2], at least 10 µM; against PRMT5 [3] it was below 50 nM; on PRMT5 [4], 50 to 500 nM; on PRMT5 [5], 50 to 500 nM. Further, in test [1], the “MTAP Intact/Deleted Ratio” value is “B* (an IC50 ratio greater than or equal to 3 fold but lower than 10 fold between the IC50 in the HAP1 MTAP-intact cell line and the HAP1 MTAP-deleted cell line)”. Moreover, at PRMT5 [3], the “SAM/MTA Ratio” value was “A (a Ki ratio greater than or equal to 10 fold between the Ki in the presence of SAM and the Ki in the presence of MTA)”.

In the case of `CC(=O)N1CC(Nc2cc(C(=O)NC[C@@H](O)[C@@H]3Cc4ccc(OCc5ocnc5C)cc4CN3)cc(N3CCCCC3)n2)C1` [Compound 45, 2-[(1-acetylazetidin-3-yl)amino]-N-[(2R)-2-hydroxy-2-[(3S)-7-[(4-methyloxazol-5-yl)methoxy]-1,2,3,4-tetrahydroisoquinolin-3-yl]ethyl]-6-(1-piperidyl)pyridine-4-carboxamide], the IC50 in test [1] is below 1000 nM; in test [2] it was at least 10 µM; against PRMT5 [3], below 50 nM; at PRMT5 [4] it was 50 to 500 nM; at PRMT5 [5], 50 to 500 nM. In addition, in test [1], the “MTAP Intact/Deleted Ratio” value is “A* (an IC50 ratio greater than or equal to 10 fold between the IC50 in the HAP1 MTAP-intact cell line and the HAP1 MTAP-deleted cell line)”. For the same molecule, the “SAM/MTA Ratio” value at PRMT5 [3] was “A (a Ki ratio greater than or equal to 10 fold between the Ki in the presence of SAM and the Ki in the presence of MTA)”.
